Source: patent US20070155783A1, “Substituted cyclohexyl and piperidinyl derivates as melanocortin-4 receptor modulators” (priority 2003, published 2007)

Columns and labels:
[1] = biological target: T1, hMC4-R (Homo sapiens, UniProt P32245); assay: Membrane binding assay, competition with fluorescence labeled NDP-alpha-MSH (fluorescence polarization); details: HEK293 cell membrane preparations expressing human melanocortin receptor
T1 construct: expressed in transfected cells; host or cells: HEK293 cells
T1 sequence (P32245 whole entry): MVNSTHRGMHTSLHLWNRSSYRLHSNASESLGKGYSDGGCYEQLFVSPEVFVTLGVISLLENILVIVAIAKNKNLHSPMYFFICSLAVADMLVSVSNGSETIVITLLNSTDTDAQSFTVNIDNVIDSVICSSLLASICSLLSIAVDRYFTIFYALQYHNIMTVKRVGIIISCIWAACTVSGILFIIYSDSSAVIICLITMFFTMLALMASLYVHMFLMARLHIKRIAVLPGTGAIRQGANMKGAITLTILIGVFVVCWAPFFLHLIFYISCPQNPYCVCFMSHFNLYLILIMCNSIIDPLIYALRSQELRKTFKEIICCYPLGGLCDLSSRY
Method: A membrane binding assay is used to identify competitive inhibitors of fluorescence labeled NDP-alpha-MSH binding to HEK293 cell membrane preparations expressing human melanocortin receptors.
The test compound or unlabeled NDP-alpha-MSH is dispensed at varying concentrations to a 384 well microtiter plate. Fluorescence labeled NDP-alpha-MSH is dispensed at a single concentration, followed by addition of membrane preparations. The plate is incubated for 5 h at room temperature.
The degree of fluorescence polarization is determined with a fluorescence polarization microplate reader.

[2] = biological target: T1, hMC4-R; assay: Functional cellular cAMP assay in HEK293 cells (fluorescence polarization); type: cell-based; details: for EC50: HEK293 cells expressing human melanocortin receptor, cAMP production; for % activation functional assay: cAMP produced compared to stimulation with NDP-alpha-MSH
Method: A functional cellular assay, based on competition between unlabeled cAMP and a fixed quantity of fluorescence labeled cAMP for a limited number of binding sites on a cAMP specific antibody, is used to discriminate melanocortin receptor agonists from antagonists by fluorescence polarization.
HEK293 cells expressing one of the human melanocortin receptors are transferred to 384 well microtiter plates, an appropriate amount of cAMP antibody is added, followed by the addition of different concentrations of the test compound to effect cAMP production. Cells are lysed and a fluorescence labeled cAMP conjugate is dispensed. The plate is read on a fluorescence polarization microplate reader and the amount of cAMP produced as a response to a test compound is compared to the production of cAMP resulting from stimulation with NDP-alpha-MSH.
To define antagonistic activity of a test compound, the compound is dispensed at different concentrations to cells stimulated by an appropriate amount of NDP-α-MSH. Inhibition of cAMP production is determined by comparing the inhibition of cAMP production of the test compound to the inhibition of cAMP production by a known inhibitor tested at the same concentrations.

[3] = system: male Wistar rats; assay: Spontaneous feeding paradigm, food intake in rats; type: in vivo, rat; details: 10 mg/kg
Method: Food intake in rats is measured after i.p. or p.o. administration of the test compound (see e.g. Chen, A. S. et al. Transgenic Res 2000 April; 9(2):145-54).
3-4 Hours following the onset of the light-phase, individually housed, male Wistar rats (200 -300 g) receive an ip injection or po application of test compound or vehicle in an administration volume of 2 ml/kg. Following the administration of substances (1-30 mg/kg), a pre-weighted amount of normal laboratory chow is placed into the food hopper. Food remaining is measured by hand at 1-2 hour intervals for up to 8 hours. Differences in food intake between test-compound and vehicle-treated rats are evaluated.
Selected Examples of the present invention were active in the rat model at 10 mg/kg after p.o. administration of the test compound using male Wistar rats (n=4-8).

Row | IC50 [1] | EC50 [2] | % activation functional assay [2] | Compound | increase in cumulative food intake compared to vehicle ([3]; 2 hours following administration, p=0.048, n=4) | increase in cumulative food intake compared to vehicle ([3]; 4 hours following administration, p=0.092, n=4) | increase in cumulative food intake compared to vehicle ([3]; 7 hours following administration, p=0.047, n=4)
1 | 3100 nM | – | no activation | O=C(N[C@H](C=C1CCN(c2ccccc2CN2CCCC2=O)CC1)Cc1ccc(Cl)cc1)c1cc(=O)c2ccccc2o1 [Example 17] | – | – | –
2 | 1000 nM | – | no activation | O=C(N[C@@H](C=C1CCC(c2ccccc2CN2CCCC2=O)CC1)Cc1ccc(Cl)cc1)c1cc(=O)c2ccccc2o1 (stereo partly shown) [Example 18] | – | – | –

Second part, the compound before the results:

Row | Compound | IC50 [1] | EC50 [2] | % activation functional assay [2] | increase in cumulative food intake compared to vehicle ([3]; 2 hours following administration, p=0.048, n=4) | increase in cumulative food intake compared to vehicle ([3]; 4 hours following administration, p=0.092, n=4) | increase in cumulative food intake compared to vehicle ([3]; 7 hours following administration, p=0.047, n=4)
3 | O=C(N[C@H](C=C1CCC(c2ccccc2CN2CCCC2=O)CC1)Cc1ccc(Cl)cc1)[C@H]1Cc2ccccc2CN1 (stereo partly shown) [Example 1] | 600 nM | 3300 nM | 100% | – | – | –
4 | O=C(N[C@@H](C=C1CCC(c2ccccc2CN2CCCC2=O)CC1)Cc1ccc(Cl)cc1)[C@H]1Cc2ccccc2CN1 (stereo partly shown) [Example 2] | 300 nM | 300 nM | 97% | – | – | –
5 | COc1ccc2oc(C(=O)N[C@@H](C=C3CCC(c4ccccc4CN4CCCC4=O)CC3)Cc3ccc(Cl)cc3)cc(=O)c2c1 (stereo partly shown) [Example 34] | – | – | – | 3100% | 460% | 151%
